Two molecules from patent EP4650353A1 (Shanghai Institute of Materia Medica, Chinese Academy of …, priority 2023, dated 2024) can be followed below.

Test [1] has as its system hGLP-1 receptor knock-in mice. The experiment in a line: Long-term administration in high-fat diet fed hGLP-1R mice for weight loss. It is filed as in vivo. Conditions: ammonium salt. Here is the method:
(§1) Genetically engineered hGLP-1R gene knock-in mice, male, 8-10 weeks old, specific pathogen free (SPF) grade, were purchased from Biocytogen Jiangsu Gene Biotechnology Co., Ltd. All experimental animals were housed in the SPF-level environment of the National Compound Sample Library animal room, with a temperature of 24±2°C, a relative humidity of 40-60%RH, an air cleanliness level of 7, and a day and night light-dark cycle of 12h/12h; they were continuously supplied with cobalt-60 radiation-sterilized complete mouse granular feed (Shanghai Shilin Biotechnology Co., Ltd., maintenance feed for rats and mice), and were allowed to drink tap water (sterilized with high-pressure steam) without interruption, and were allowed to drink it freely. The cages were transparent polyetherimide cages (Suzhou Fengshi Experimental Animal Equipment Co., Ltd., CP-8 mouse cages), and the bedding was corn cobs (Tezhou Gumei Agricultural Technology Co., Ltd., used after high-pressure steam sterilization). There were 3-5 animals in each cage, and the cage card indicated the IACUC approval number, experiment number, experiment start time, person in charge, experimenter, animal source, group and animal number. The purchased mice were adapted to this breeding environment for at least 7 days before being used in experiments. The animal use methods in this study were approved by the IACUC Committee of the Shanghai Institute of Materia Medica.
The mice were weighed every day, and 24 hours after the last administration, the body fat and muscle content of the mice were detected using a Bruker desktop nuclear magnetic resonance spectrometer (model LF90II). • (4) Experimental results

The test system of test [2] is hGLP-1 receptor knock-in mice. The test is described as follows: Mouse food intake suppression experiment (compound 76-1). To be noted: 10 or 30 mg/kg oral. The test is classed as in vivo. Here is the method: as §1, with “The animal use methods in this study were approved by the IACUC Committee of the Shanghai Institute of Materia Medica.” left out
The next test deals with hGLP-1R transgenic mice. The test is described as follows: Hypoglycemic effect of compound 76-1 (oral glucose tolerance test). The test is classed as in vivo. Here is the method:
Mouse model: hGLP-1R transgenic mice, 6 female mice per experimental group.
Experimental procedure: The mice were starved overnight, and the blood sugar in the tail of the mice was measured. 30 minutes after oral administration, the blood sugar was measured again as the blood sugar at zero point. Then, 2g/kg of sugar was given orally. 15min, 30min, 60min, and 90min after sugar administration, the blood sugar was measured using a blood glucose meter.

The next test deals with T1, human GLP-1 receptor (Homo sapiens, UniProt P43220).
T1 construct: HA (N); expressed in transfected cells
The experiment in a line: GLP-1 receptor-mediated agonist activity: cAMP level in hGLP-1R/HEK293 cell line (HTRF). It is filed as cell-based. To be noted: cAMP levels in hGLP-1R/HEK293 cell line; Table 1; read-out: determined EC50.

The next test has as its system β-arrestin 1. The experiment in a line: NanoBiT recruitment of β-arrestin 1 by GLP-1R in HEK293 cells. It is filed as cell-based, human. To be noted: endogenous GLP-1 = 100%; Figure 1, n=3. From the text: (§2) The Promega NanoBiT protein-protein reaction system was used to detect the recruitment of β-arrestin 1 and β-arrestin 2 by GLP-1R. The NanoBit Protein-Protein Reaction System was a dual-subunit system based on NanoLuc luciferase that could be used to detect protein-protein interactions in cells. The LgBiT (17.6 kDa) and SmBiT (11 amino acids) subunits were fused to the proteins of interest, respectively. When the proteins of interest interact, the two subunits came into close proximity to form an enzyme with catalytic activity, which could catalyze the luminescence of the luciferase substrate. Firstly, the human GLP-1R gene was connected to the N-terminus of LgBit, the β-arrestin 1/2 gene was cloned to the C-terminus of SmBit, and the fusion protein was introduced into the pcDNA3.0 vector to construct plasmids expressing hGLP-1R-LgBit and SmBit-β-arrestin 1/2 fusion proteins. The hGLP-1R-LgBit plasmid and SmBit-β-arrestin 1 (or SmBit-β-arrestin 2) plasmid were co-transfected into HEK293 cells at a ratio of 1 µg plasmid/2×10^6 cells.

A further test concerns β-arrestin 2. The experiment in a line: NanoBiT recruitment of β-arrestin 2 by GLP-1R in HEK293 cells. It is filed as cell-based, human. To be noted: endogenous GLP-1 = 100%; Figure 2, n=3.
Description: as §2

T1 sequence (P43220 24-463): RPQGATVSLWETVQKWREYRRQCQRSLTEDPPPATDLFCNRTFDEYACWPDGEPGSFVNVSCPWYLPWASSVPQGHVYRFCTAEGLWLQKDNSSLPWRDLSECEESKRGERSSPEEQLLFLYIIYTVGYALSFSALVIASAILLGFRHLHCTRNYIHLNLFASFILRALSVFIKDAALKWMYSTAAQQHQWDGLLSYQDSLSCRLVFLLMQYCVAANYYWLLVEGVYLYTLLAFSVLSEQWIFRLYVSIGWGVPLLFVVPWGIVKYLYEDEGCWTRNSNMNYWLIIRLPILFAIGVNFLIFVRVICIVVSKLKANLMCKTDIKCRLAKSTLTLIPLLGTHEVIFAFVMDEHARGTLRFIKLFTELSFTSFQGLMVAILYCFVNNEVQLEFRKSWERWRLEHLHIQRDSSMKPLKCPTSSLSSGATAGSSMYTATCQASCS

With `[2H]C([2H])([2H])C([2H])([2H])Oc1cc(C(=O)O)cc2c1nc(CN1CCN(c3cccc4c3O[C@@](C)(c3ccc(Cl)cc3F)O4)C=N1)n2C[C@@H]1CCO1` [Compound 76-1, 2-((4-((S)-2-(4-chloro-2-fluorophenyl)-2-methylbenzo[d][1,3]dioxol-4-yl)-5,6-dihydro-1,2,4-triazin-1(4H)-yl)methyl)-4-(ethoxy-d5)-1-(((S)-oxetan-2-yl)methyl)-1H-benzo[d]imidazole-6-carboxylic acid], the “weight gain of HFD-fed mice” value in test [1] (30 mg/kg by gavage once a day, 15 days) was “effectively inhibit the weight gain”. Besides, the “reduce body weight compared with the blank control group” value in test [1] (30 mg/kg once a day, after 15 days of administration, HFD) was determined as 20.4%. In addition, the “body fat and lean (muscle) content change trend in HFD mice” value in test [1] (30 mg/kg, after 15 days of administration) is recorded as “effectively inhibit this change trend”. In addition, the “effect on food intake compared with positive control PF-06882961 ammonium salt at the same dose” value in test [2] was “better than the positive control PF-06882961 ammonium salt”. For the same molecule, in test [2] (ammonium salt, within 0 to 12 hours, fasted 6 h), the food intake entry was “significantly inhibit the food intake”. In addition, in the test on hGLP-1R transgenic mice (ammonium salt, 0.1, 0.3 mg/kg oral), the “area under the blood glucose curve (AUC)” value is reported as “dose-dependently reduce”. The blood glucose level entry in the test on hGLP-1R transgenic mice (ammonium salt, 0.1, 0.3 mg/kg oral, 30 min before 2 g/kg sugar) was “dose-dependently reduce”. In addition, the effective dose with hGLP-1R transgenic mice (ammonium salt, oral, oral glucose tolerance test) is recorded as no more than 0.1 mg/kg. The EC50 at human GLP-1 receptor is 1.6 pM.
Turning to `CC[C@H](C)[C@H](NC(=O)[C@H](Cc1ccccc1)NC(=O)[C@H](CCC(=O)O)NC(=O)[C@H](CCCCN)NC(=O)[C@H](C)NC(=O)[C@H](C)NC(=O)[C@H](CCC(N)=O)NC(=O)CNC(=O)[C@H](CCC(=O)O)NC(=O)[C@H](CC(C)C)NC(=O)[C@H](Cc1ccc(O)cc1)NC(=O)[C@H](CO)NC(=O)[C@H](CO)NC(=O)[C@@H](NC(=O)[C@H](CC(=O)O)NC(=O)[C@H](CO)NC(=O)[C@@H](NC(=O)[C@H](Cc1ccccc1)NC(=O)[C@@H](NC(=O)CNC(=O)[C@H](CCC(=O)O)NC(=O)[C@H](C)NC(=O)[C@@H](N)Cc1c[nH]cn1)[C@@H](C)O)[C@@H](C)O)C(C)C)C(=O)N[C@@H](C)C(=O)N[C@@H](Cc1c[nH]c2ccccc12)C(=O)N[C@@H](CC(C)C)C(=O)N[C@H](C(=O)N[C@@H](CCCCN)C(=O)NCC(=O)N[C@@H](CCCNC(=N)N)C(N)=O)C(C)C` [GLP-1], the “maximum agonistic effect (Emax) recruiting β-arrestin 1” value with β-arrestin 1 worked out at 100%. Besides, the “maximum agonistic effect (Emax) recruiting β-arrestin 2” value with β-arrestin 2 is given as 100%.
